Tests used:
[1] = system: B16-F10 syngeneic mouse melanoma-derived subcutaneous tumor; test: B16-F10 Study 7: mouse B16-F10 syngeneic tumor model, individual tumor volume; assay type: in vivo; details: delay from day 7 to day 10-12; of the 8 implanted tumors; Compound I-263a 7.5 mg/kg IV BIWx3 till Day 17
Protocol: B16-F10 Study 7: B16-F10 is a mouse melanoma cell line. B16-F10 mouse syngeneic tumor model was generated by subcutaneous inoculation with 0.08×10^6 B16-F10 cells (cell suspension) in 11 weeks old female C57BL/6 mice (Taconic Biosciences, Rensselaer, NY) in the flank. When the mean tumor volume reached approximately 50 mm^3, the animals were randomized into one vehicle control and five treatment groups (n=8/group). Mice were then dosed with 20% HPbCD or Compound I-263a or anti-mouse PD-1 antibody over a 17-day period. Tumor growth and body weight were measured twice per week during the treatment and post-treatment periods, and mice were humanely euthanized once they had reached their humane endpoint.
(§1) Study 7: A 0.75 mg/mL stock solution of Compound I-263a was formulated weekly in 20% HPβCD and administered intravenously (IV) based on exact animal body weight on each day of treatment, using a dosing volume of 10 mL/kg body weight. Final doses received were 7.5 mg/kg. Dosing volume for Compound I-263a was 0.2 mL. […]
(§2) Tumors were measured twice weekly using vernier calipers. Tumor volumes were calculated using standard equation: V=W^2×L/2, where V=volume, W=width, and L=length for the tumor. […] Tumor size and body weight were measured twice a week for the duration of the study. […]

[2] = system: MC38 syngeneic mouse colon adenocarcinoma-derived subcutaneous tumor; test: MC38 Study 8: mouse MC38 syngeneic tumor model, individual tumor volume; assay type: in vivo; details: BIWx3 till Day 17
Protocol: MC38 Study 8: MC38 is a mouse colon adenocarcinoma cell line. MC38 mouse syngeneic tumor model was generated by subcutaneous inoculation with 1.0×10^6 MC38 cells (cell suspension) in 11 weeks old female C57BL/6 mice (SINO-British SIPPR/BK Lab Animal Ltd., Shanghai, China) in the flank. When the mean tumor volume reached approximately 60 mm^3, the animals were randomized into one vehicle control and five treatment groups (n=8/group). Mice were then dosed with 20% HPbCD or Compound I-263a or anti-mouse PD-1 antibody over a 21-day period. Tumor growth and body weight were measured twice per week during the treatment and post-treatment periods, and mice were humanely euthanized once they had reached their humane endpoint.
as §1, with “8:” for “7:”
as §2

SMILES: Cc1sc(C(=O)c2cncnc2N[C@@H]2C[C@H](COS(N)(=O)=O)[C@@H](O)C2)cc1[C@@H]1NCCc2ccc(Cl)cc21 [Compound I-263a, [(1R,2S,4R)-4-{[5-({4-[(1R)-7-chloro-1,2,3,4-tetrahydroisoquinolin-1-yl]-5-methyl-2-thienyl}carbonyl)pyrimidin-4-yl]amino}-2-hydroxycyclopentyl]methyl sulfamate]
- tumors with tumor growth delay [1]: 2
- tumors with tumor growth delay ([2]; delay day 11-14, Compound I-263a 7.5 mg/kg IV or anti-mPD-1 10 mg/kg IP): 1
- tumors with tumor growth delay ([2]; delay from day 7-18, 8 implanted tumors, Compound I-263a 7.5 mg/kg IV alone or plus anti-mPD-1 10 mg/kg IP): 2

Reference: patent publication US12419890B2, “Administration of sumo-activating enzyme inhibitor and checkpoint inhibitors” (Takeda Pharmaceutical Company Limited, priority 2019, dated 2025)
